Reference: patent US9006285B2, “Therapeutic agent for hepatitis C” (Mochida Pharmaceutical Co., Ltd., priority 2008, dated 2015)

Columns and labels:
[1] = test system: HCV replication in OR6 cells; conditions: cited from earlier work
hepatitis C virus (HCV) [2] = experiment: EPA-E before and during interferon therapy in hepatitis C with or without hepatic steatosis (Example 2-2); assay type: in vivo, human; conditions: 1800 to 2700 mg/day oral at least one month before and during interferon therapy
Protocol: The patients to be tested are divided into two groups, EPA-E administered group and EPA-E non-administered group. In addition, a fatty liver group and a non-fatty liver group are set up in each of the EPA-E administered group and the EPA-E non-administered group by investigating the degree of hepatic fatty change through diagnostic imaging or hepatobiopsy. To the EPA-E administered group, 1800 to 2700 mg/day of EPA-E is orally administered for at least one month before interferon therapy. To the EPA-E non-administered group, none of EPA and derivatives thereof is administered during the testing period. Subsequently, interferon therapy is conducted on each group for three months or longer. The dose, dosage interval, dosage period, and the like of interferon are specified as appropriate to the condition of a patient, side effects of the interferon, and so forth. After the termination of interferon administration, the alanine aminotransferase (ALT) activity and the HCV-RNA level are measured (the latter by a COBAS AMPLICOR MONITOR assay), and a hepatohistological test is conducted. It should be noted that EPA-E is also administered to the EPA-E group during the administration of interferon.

[3] = test system: HCV replication in Ava5 cells; conditions: cited from earlier work
[4] = in vivo; cited from earlier work
[5] = test system: blood HCV-RNA level (hepatitis C virus); experiment: Interferon therapy (interferon and ribavirin) with or without EPA-E in hepatitis C patients, by blood triglyceride level (Example 3); assay type: in vivo, human; conditions: hepatitis C complicated with hypertriglyceridemia; interferon therapy along with oral 1800 to 2700 mg/day EPA-E
Excerpt: The determination of the response rate to interferon therapy needs a follow-up survey for six months or longer after the completion of the therapy, that is to say, is time-consuming. The response rate can be determined earlier by using a leading index as a surrogate. For instance, the response rate to interferon therapy is expected to be increased if the reduction in viral load (reduction in blood HCV-RNA level) is significant three days after the start of the therapy. Accordingly, the reduction in viral load three days after the start of interferon therapy can be used as a leading index for the determination of the response rate to the interferon therapy. The reduction in viral load is preferably not less than 2.0 as the difference between the common logarithm value of the blood HCV-RNA level before the start of interferon therapy and the common logarithm value of the blood HCV-RNA level three days after the start of interferon therapy.
On the patients having hepatitis C complicated with hypertriglyceridemia, the interferon therapy was then conducted along with the oral administration of 1800 to 2700 mg/day of EPA-E.
As a result, the reduction in viral load was 2.375 on average, that is to say, EPA-E improved the effectiveness of the interferon therapy in the patients having hepatitis C complicated with hypertriglyceridemia. […]

hepatitis C virus (HCV) [6] = experiment: EPA-E in interferon non-responders having hepatitis C complicated with hepatic steatosis (Example 1); assay type: in vivo, human; conditions: 2700 mg/day oral, third and sixth month, no interferon
Protocol: To the patients from whom interferon was withdrawn for about one month after they were determined to be unresponsive to interferon therapy, 2700 mg/day of EPA-E is orally administered for three months or longer. During the testing period, it is forbidden to administer any new drug considered to effect change in hepatic function. Also forbidden is administration of interferon. If the alanine aminotransferase (ALT) activity and/or the HCV-RNA level is quantified (the latter by a COBAS AMPLICOR MONITOR assay) before EPA-E administration, as well as on the third month and the sixth month of EPA-E administration, and the values as obtained are compared with those before administration, it is confirmed that the ALT activity and/or the HCV-RNA level is reduced by not less than 10%.
Instead of the ALT activity, improvement in liver tissue finding, reduction in lipid droplet, or reduction in proportion of 18:1 fatty acids (oleic acid in particular) among liver triglyceride fractions may be confirmed.

hepatitis C virus (HCV) [7] = experiment: Response rate to repeated interferon therapy after EPA-E in non-responders or relapsers (Example 2-1); assay type: in vivo, human; conditions: 1800 to 2700 mg/day oral for three months before repeated interferon therapy; six months after completion of interferon therapy
Protocol: Employing those hepatitis C patients as targets who were determined as non-responders or relapsers after interferon therapy, it is confirmed that the response rate to the interferon therapy is improved in re-treatment cases by the administration of EPA-E.
The patients to be tested are divided into two groups, namely, EPA-E administered group and EPA-E non-administered group. To the EPA-E administered group, 1800 to 2700 mg/day of EPA-E is orally administered for three months after the patients were determined as non-responders or relapsers with respect to the interferon therapy. To the EPA-E non-administered group, none of EPA and derivatives thereof is administered during the testing period. Subsequently, the interferon therapy is conducted again on both groups. The dose, dosage interval, dosage period, and the like of interferon are specified as appropriate to the condition of a patient, side effects of the interferon, and so forth. The ratio at which the patients became negative for the HCV-RNA level is calculated six months after the completion of interferon therapy.
It is confirmed that the ratio as calculated is higher in the EPA-E administered group than the EPA-E non-administered group.

[8] = test system: blood HCV-RNA level (hepatitis C virus); experiment: Time to negativity for the blood HCV-RNA level on repeated interferon therapy after EPA-E (Example 2-3); assay type: in vivo, human; conditions: 1800 to 2700 mg/day oral at least two weeks before repeated interferon therapy
Protocol: Employing those hepatitis C patients as targets who were determined as non-responders or relapsers after interferon therapy, it is confirmed that the time at which the patients become negative for the blood HCV-RNA level is allowed to be earlier by the administration of EPA-E.
The patients to be tested are divided into two groups, EPA-E administered group and EPA-E non-administered group. To the EPA-E administered group, 1800 to 2700 mg/day of EPA-E is orally administered for at least two weeks after the patients were determined as non-responders or relapsers with respect to the interferon therapy. To the EPA-E non-administered group, none of EPA and derivatives thereof is administered during the testing period. Subsequently, the interferon therapy is conducted again on both groups. The dose, dosage interval, dosage period, and the like of interferon are specified as appropriate to the condition of a patient, side effects of the interferon, and so forth. The blood HCV-RNA level is measured in course of the administration of interferon. Data on the time after the start of interferon administration at which the patients became negative for the blood HCV-RNA level are collected to comparison between the two groups.
For instance, the ratio of the patients becoming negative for the blood HCV-RNA level within 12 weeks after the start of interferon administration is increased.

[9] = healthy male adult, cited from earlier work
hepatitis C virus (HCV) [10] = conditions: hepatitis C patients; cited from earlier work
[11] = in one week of continuous oral administration

## CC/C=C\C/C=C\C/C=C\C/C=C\C/C=C\C/C=C\CCC(=O)O [DHA, docosahexaenoic acid]
[1]
  HCV replication-inhibiting effect independent of cytotoxicity: only linoleic acid had the HCV replication-inhibiting effect

## CC/C=C\C/C=C\C/C=C\C/C=C\C/C=C\CCCC(=O)O [EPA, icosapentaenoic acid]
Hepatitis C virus (HCV) [2]
  effect of interferon and EPA in combination versus interferon alone on hepatitis C complicated with hepatic steatosis: greater effect
[3]
  HCV replication: inhibited HCV replication
[4]
  anaemia during combination therapy with interferon and ribavirin: can prevent anaemia
[1]
  HCV replication-inhibiting effect independent of cytotoxicity: only linoleic acid had the HCV replication-inhibiting effect

## CC/C=C\C/C=C\C/C=C\C/C=C\C/C=C\CCCC(=O)OCC [EPA-E, ethyl icosapentate]
[5]
  reduction in viral load (difference between common logarithm values of the blood HCV-RNA level), on average: 2.375
Hepatitis C virus (HCV) [6]; COBAS AMPLICOR MONITOR assay
  reduction of HCV-RNA level compared with before administration: not less than 10%
Hepatitis C virus (HCV) [6]
  reduction of ALT activity compared with before administration: not less than 10%
Hepatitis C virus (HCV) [7]
  ratio at which patients became negative for the HCV-RNA level, versus EPA-E non-administered group: higher
Hepatitis C virus (HCV) [2]; ALT, HCV-RNA, hepatohistological test
  effect on hepatitis C complicated with hepatic steatosis versus not complicated with hepatic steatosis: greater
[8]
  ratio of patients becoming negative for the blood HCV-RNA level within 12 weeks after start of interferon administration: increased
  time at which patients become negative for the blood HCV-RNA level, versus EPA-E non-administered group: shows a tendency to be earlier
[9]; continuous oral administration
  time at which the plasma EPA level reaches a plateau: one week
[9]; [11]
  plasma EPA/AA (arachidonic acid) ratio: higher than 1.0
  plasma EPA/AA relative to that before administration: about two times

## CCCCC/C=C\C/C=C\C/C=C\C/C=C\CCCC(=O)O [arachidonic acid]
[3]
  HCV replication: inhibited HCV replication
[1]
  HCV replication-inhibiting effect independent of cytotoxicity: only linoleic acid had the HCV replication-inhibiting effect

## CCCCC/C=C\C/C=C\CCCCCCCC(=O)O [linoleic acid]
[1]
  HCV replication-inhibiting effect independent of cytotoxicity: only linoleic acid had the HCV replication-inhibiting effect

## IFN-α
Hepatitis C virus (HCV) [10]
  HCV elimination rate: about 30%
